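The compound was tested at five concentrations on cells cultured in 96-well plates, with a 48-hour exposure period. The concentration for 50% growth inhibition is given as GI50. At the TGI there is no net growth.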
Assays:
Test in all cases: inhibition of tumour cell growth, NCI panel, 48 h
SK-MEL-5 melanoma = system: SK-MEL-5 melanoma
UACC-62 melanoma = system: UACC-62 melanoma
NCI/ADR-RES ovarian = system: NCI/ADR-RES ovarian
TK-10 renal = system: TK-10 renal
COLO 205 colon = system: COLO 205 colon
ACHN renal = system: ACHN renal
786-0 renal = system: 786-0 renal
UO-31 renal = system: UO-31 renal
RXF 393 renal = system: RXF 393 renal
SNB-75 CNS = system: SNB-75 CNS
PC-3 prostate = system: PC-3 prostate
SNB-19 CNS = system: SNB-19 CNS
HOP-92 NSCLC = system: HOP-92 NSCLC
CAKI-1 renal = system: CAKI-1 renal
M14 melanoma = system: M14 melanoma
HCT-116 colon = system: HCT-116 colon
SW-620 colon = system: SW-620 colon
NCI-H460 lung = system: NCI-H460 lung
OVCAR-8 ovarian = system: OVCAR-8 ovarian
BT-549 breast = system: BT-549 breast
IGROV1 ovarian = system: IGROV1 ovarian
LOX IMVI melanoma = system: LOX IMVI melanoma
SF-539 CNS = system: SF-539 CNS
T-47D breast = system: T-47D breast
MDA-MB-435 = system: MDA-MB-435
SK-MEL-2 melanoma = system: SK-MEL-2 melanoma
DU-145 prostate = system: DU-145 prostate
SF-295 CNS = system: SF-295 CNS
OVCAR-4 ovarian = system: OVCAR-4 ovarian
NCI-H522 lung = system: NCI-H522 lung
SK-OV-3 ovarian = system: SK-OV-3 ovarian
HS 578T breast = system: HS 578T breast
SF-268 CNS = system: SF-268 CNS
RPMI-8226 leukemia = system: RPMI-8226 leukemia
A498 renal = system: A498 renal
SK-MEL-28 melanoma = system: SK-MEL-28 melanoma
SN12C renal = system: SN12C renal
EKVX NSCLC = system: EKVX NSCLC
UACC-257 melanoma = system: UACC-257 melanoma
OVCAR-5 ovarian = system: OVCAR-5 ovarian
HOP-62 NSCLC = system: HOP-62 NSCLC
NCI-H226 lung = system: NCI-H226 lung

With `OC1CCN(CCCOc2c3ccccc3nc3c2oc2ccc(Cl)cc23)CC1` the GI50 (SK-MEL-5 melanoma) was 1780 nM, the TGI (SK-MEL-5 melanoma) was 3250 nM and the GI50 (UACC-62 melanoma) was 1990 nM. It also gave a TGI (UACC-62 melanoma) of 4820 nM, a GI50 (NCI/ADR-RES ovarian) of 579 nM and a TGI (NCI/ADR-RES ovarian) of 4910 nM. For the same compound, the GI50 (TK-10 renal) was 2750 nM, the TGI (TK-10 renal) was 18300 nM and the GI50 (COLO 205 colon) was 755 nM. The TGI (COLO 205 colon) was 2210 nM, the GI50 (ACHN renal) was 534 nM and the TGI (ACHN renal) was 10300 nM. It also gave a GI50 (786-0 renal) of 1080 nM, a TGI (786-0 renal) of 3610 nM and a GI50 (UO-31 renal) of 1230 nM. For the same compound, the TGI (UO-31 renal) was 3290 nM, the GI50 (RXF 393 renal) was 1020 nM and the TGI (RXF 393 renal) was 2310 nM. The GI50 (SNB-75 CNS) was 1970 nM, the TGI (SNB-75 CNS) was 10900 nM and the GI50 (PC-3 prostate) was 1280 nM. It also gave a TGI (PC-3 prostate) of 4040 nM, a GI50 (SNB-19 CNS) of 1400 nM and a TGI (SNB-19 CNS) of 18200 nM. For the same compound, the GI50 (HOP-92 NSCLC) was 713 nM, the TGI (HOP-92 NSCLC) was 5040 nM and the GI50 (CAKI-1 renal) was 710 nM. For the same compound, the TGI (CAKI-1 renal) was 2290 nM, the GI50 (M14 melanoma) was 1450 nM and the TGI (M14 melanoma) was 3690 nM. It also gave a GI50 (HCT-116 colon) of 414 nM, a TGI (HCT-116 colon) of 2360 nM and a GI50 (SW-620 colon) of 444 nM. For the same compound, the TGI (SW-620 colon) was 2090 nM, the GI50 (NCI-H460 lung) was 440 nM and the TGI (NCI-H460 lung) was 1850 nM. It also gave a GI50 (OVCAR-8 ovarian) of 991 nM, a TGI (OVCAR-8 ovarian) of 11900 nM and a GI50 (BT-549 breast) of 3040 nM. For the same compound, the TGI (BT-549 breast) was 10100 nM, the GI50 (IGROV1 ovarian) was 1250 nM and the TGI (IGROV1 ovarian) was 6280 nM. The GI50 (LOX IMVI melanoma) was 372 nM, the TGI (LOX IMVI melanoma) was 1520 nM and the GI50 (SF-539 CNS) was 1070 nM. It also gave a TGI (SF-539 CNS) of 2300 nM, a GI50 (T-47D breast) of 3540 nM and a TGI (T-47D breast) of 20700 nM. The GI50 (MDA-MB-435) was 1230 nM, the TGI (MDA-MB-435) was 2560 nM and the GI50 (SK-MEL-2 melanoma) was 2450 nM. The TGI (SK-MEL-2 melanoma) was 5990 nM, the GI50 (DU-145 prostate) was 1060 nM and the TGI (DU-145 prostate) was 3570 nM. For the same compound, the GI50 (SF-295 CNS) was 1490 nM, the TGI (SF-295 CNS) was 6450 nM and the GI50 (OVCAR-4 ovarian) was 1230 nM. For the same compound, the TGI (OVCAR-4 ovarian) was 3660 nM, the GI50 (NCI-H522 lung) was 1110 nM and the TGI (NCI-H522 lung) was 2730 nM. It also gave a GI50 (SK-OV-3 ovarian) of 2420 nM, a TGI (SK-OV-3 ovarian) of 7070 nM and a GI50 (HS 578T breast) of 2280 nM. It also gave a TGI (HS 578T breast) of 13400 nM, a GI50 (SF-268 CNS) of 1080 nM and a TGI (SF-268 CNS) of 10000 nM. For the same compound, the GI50 (RPMI-8226 leukemia) was 1330 nM, the TGI (RPMI-8226 leukemia) was 4030 nM and the GI50 (A498 renal) was 2530 nM. It also gave a TGI (A498 renal) of 7590 nM, a GI50 (SK-MEL-28 melanoma) of 1640 nM and a TGI (SK-MEL-28 melanoma) of 3100 nM. For the same compound, the GI50 (SN12C renal) was 883 nM, the TGI (SN12C renal) was 17200 nM and the GI50 (EKVX NSCLC) was 2410 nM. For the same compound, the TGI (EKVX NSCLC) was 13200 nM, the GI50 (UACC-257 melanoma) was 1750 nM and the TGI (UACC-257 melanoma) was 3530 nM. For the same compound, the GI50 (OVCAR-5 ovarian) was 1710 nM, the TGI (OVCAR-5 ovarian) was 6040 nM and the GI50 (HOP-62 NSCLC) was 1740 nM. It also gave a TGI (HOP-62 NSCLC) of 7570 nM, a GI50 (NCI-H226 lung) of 1720 nM and a TGI (NCI-H226 lung) of 3750 nM.
